This is an account of results in patent publication US9518046B2 (Calitor Sciences, LLC, priority 2015, dated 2016).

The conditions of series [1]: literature; cited from earlier work.
For series [2] the following is noted: literature; cited from earlier work. This is another data set of the same source.
The nature of series [3]: Pharmacokinetics after intravenous and oral administration in rats. It is filed as in vivo. The following applies: Rats; iv dosing; dose 1 mg/kg (0.5 for Ex. 1, 10, 11, 35; 0.48 for Ex. 24). In short, it runs like this:
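Dosing used solution, suspension or capsule formulations: 1 or 2 mg/kg IV in all species; PO 5 or 10 mg/kg in mice and rats, 10 mg/kg in dogs and monkeys. Plasma sampled from 0.083 or 0.25 h up to 24 h post-dose; concentrations determined by LC/MS/MS in MRM mode.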

Series [4] is described as follows: Pharmacokinetics after intravenous and oral administration in dogs. It is filed as in vivo. The settings on record: Dog; iv dosing 1 mg/kg. The method, then: (§1) The LC/MS/MS system used in the analysis consists of an Agilent 1200 Series vacuum degasser, binary pump, well-plate autosampler, thermostatted column compartment, the Agilent G6430 Triple Quadrupole Mass Spectrometer with an electrosprayionization (ESI) source. Quantitative analysis was carried out using MRM mode. The parameters for MRM transitions are in the Table A.
(§2) An Agilent XDB-C18, 2.1×30 mm, 3.5 M column was used for the analysis. 5 L of the samples were injected. Analysis condition: The mobile phase was 0.1% formic acid in water (A) and 0.1% formic acid in methanol (B). The flow rate was 0.4 mL/min. And the gradient of Mobile phase was in the Table B.
(§3) Alternatively, an Agilent 6330 series LC/MS/MS spectrometer equipped with G1312A binary pumps, a G1367A autosampler and a G1314C UV detector were used in the analysis. An ESI source was used on the LC/MS/MS spectrometer. The analysis was done in positive ion mode as appropriate and the MRM transition for each analyte was optimized using standard solution. A Capcell MP-C18 100×4.6 mm I.D., […] column (Phenomenex, Torrance, Calif., USA) was used during the analysis. The mobile phase was 5 mM ammonia acetate, 0.1% MeOH in water (A): 5 mM ammonia acetate, 0.1% MeOH in acetonitrile (B) (70:30, v/v). The flow rate was 0.6 mL/min. Column was maintained at ambient temperature. 20 μL of the samples were injected.
(§4) The compounds disclosed herein are assessed in pharmacokinetic studies in mice, rats, dogs or monkeys. The compounds are administered as a water solution, 2% HPMC+1% TWEEN®80 in water solution, 5% DMSO+5% solutol in saline, 4% MC suspension or capsule. For the intravenous administration, the animals are generally given at 1 or 2 mg/kg dose. For the oral (p.o.) dosing, mice and rats are generally given 5 or 10 mg/kg dose, and dogs and monkeys are generally given 10 mg/kg dose. […] The plasma solutions are collected, stored at −20° C. or −70° C. until analyzed by LC/MS/MS as described above.

Series [5] in a line: Pharmacokinetics after intravenous and oral administration in monkeys. Format: in vivo. The following applies: Monkey; iv dosing 1 mg/kg. The method, then:
as §1, §2, §3, §4

Series [6] in a line: Pharmacokinetics after intravenous and oral administration in mice. It is filed as in vivo. The following applies: Mouse; iv dosing 1 mg/kg. Here is the method: as §1, §2
Alternatively, an Agilent 6330 series LC/MS/MS spectrometer equipped with G1312A binary pumps, a G1367A autosampler and a G1314C UV detector were used in the analysis. An ESI source was used on the LC/MS/MS spectrometer. The analysis was done in positive ion mode as appropriate and the MRM transition for each analyte was optimized using standard solution. A Capcell MP-C18 100×4.6 mm I.D., […] column (Phenomenex, Torrance, Calif., USA) was used during the analysis. […]
The compounds disclosed herein are assessed in pharmacokinetic studies in mice, rats, dogs or monkeys. […] The plasma solutions are collected, stored at −20° C. or −70° C. until analyzed by LC/MS/MS as described above.

Series [7] deals with PI3Kδ. The following applies: literature; cited from earlier work.
Series [8] deals with protein kinases. The following applies: literature; cited from earlier work.
For series [9] the following is noted: murine model of asthma, ovalbumin-induced airway inflammation; literature; cited from earlier work.

Regarding `O=C1NC(=O)/C(=C\c2ccc3nccnc3c2)S1` [AS 605240], in series [1], the “efficacy in mouse model of rheumatoid arthritis” value is “efficacious”. For the same compound, the “effect on onset of disease in model of systemic lupus erythematosis” value in series [2] is “delay onset of disease”.
One may read the CL/F as the apparent clearance, not corrected for the fraction that reaches the circulation. Take `CC[C@H](Nc1ncnc(N)c1-c1nc(C)no1)c1nc2cccc(Cl)c2c(=O)n1C1CC1` [Ex. 4, (S)-2-(1-((6-amino-5-(3-methyl-1,2,4-oxadiazol-5-yl)pyrimidin-4-yl)amino)-propyl)-5-chloro-3-cyclopropylquinazolin-4(3H)-one]: the CL/F was 21.5 mL/min/kg in series [3], 9.67 mL/min/kg in series [4] and 11.6 mL/min/kg in [5].
For `Cc1nnc(-c2c(N)ncnc2N[C@@H](C)c2nc3cccc(Cl)c3c(=O)n2-c2ccccc2)o1` [Ex. 64, (S)-2-(1-((6-amino-5-(5-methyl-1,3,4-oxadiazol-2-yl)pyrimidin-4-yl)amino)ethyl)-5-chloro-3-phenylquinazolin-4(3H)-one], the CL/F in [3] was 28.3 mL/min/kg; in series [6], 18.8 mL/min/kg; in [4], 1.83 mL/min/kg; in series [5] it was 7.17 mL/min/kg.
As to `Cc1noc(-c2c(N)ncnc2N[C@@H](C)c2nc3cccc(Cl)c3c(=O)n2-c2ccccc2)n1` [Ex. 65, (S)-2-(1-((6-amino-5-(3-methyl-1,2,4-oxadiazol-5-yl)pyrimidin-4-yl)amino)ethyl)-5-chloro-3-phenylquinazolin-4(3H)-one], the CL/F is 31.7 mL/min/kg in [6], 6.17 mL/min/kg in series [4] and 15.3 mL/min/kg in [5].
With `Cc1ccccc1-n1c(Cn2cnc3c(N)ncnc32)nc2cccc(C)c2c1=O` [IC87114], the “inhibits PI3Kδ” value in series [7] is given as “high nanomolar range (triple digit)”. Further, the “activity against any protein kinases tested” value in [8] is given as “no activity”. The “effect on inflammation and disease” value in series [9] was “significantly ameliorate inflammation and disease”.
